Measured values: ChEMBL document CHEMBL5241127, “Design, synthesis and biological evaluation of novel 9-N-substituted-13-alkylberberine derivatives from Chinese medicine as anti-hepatocellular carcinoma agents” (Bioorg Med Chem, 2023)
Blank lines part the entries; values can stand above or below the compound they belong to.

Experiments:
Quadruplex DNA [1] = experiment: Binding affinity to c-MYC G4-quadruplex DNA (unknown origin) using fluorescent tagged FPu18T model assessed as stabilization by measuring change in melting temperature at 2 uM incubated in presence of non-fluorescent ds26 DNA by fluorescence based analysis; assay type: nucleic-acid assay
HepG2 [2] = experiment: Antiproliferative activity against human HepG2 cells assessed as inhibition of cell growth incubated for 72 hrs by MTT assay; assay type: functional, cell-based; conditions: HepG2, 72 h
DNA = experiment: Binding affinity to duplex DNA (unknown origin) using fluorescent tagged F10T model assessed as stabilization by measuring change in melting temperature at 2 uM by fluorescence based analysis; assay type: nucleic-acid assay
Quadruplex DNA [3] = experiment: Binding affinity to c-MYC G4-quadruplex DNA (unknown origin) using fluorescent tagged FPu18T model assessed as stabilization by measuring change in melting temperature at 2 uM by fluorescence based analysis; assay type: nucleic-acid assay
H22 = experiment: Antitumor activity against […] xenografted in ICR mouse assessed as inhibition of tumor growth at 20 mg/kg, iv administered for 21 days and measured every 2 days relative to control; assay type: functional; conditions: H22, 504 h, time 21 day, read-out: TGI
[4] = Antiproliferative activity against human LX2 cells assessed as inhibition of cell growth incubated for 72 hrs by MTT assay; assay type: functional, cell-based; conditions: LX-2, 72 h
SK-HEP1 = experiment: Antiproliferative activity against human SK-HEP1 cells assessed as inhibition of cell growth incubated for 72 hrs by MTT assay; assay type: functional, cell-based; conditions: SK-HEP1, 72 h
Hep 3B2 = experiment: Antiproliferative activity against human Hep3B cells assessed as inhibition of cell growth incubated for 72 hrs by MTT assay; assay type: functional, cell-based
HepG2 [5] = experiment: Antiproliferative activity against cisplatin-resistant human HepG2 cells assessed as inhibition of cell growth incubated for 72 hrs by MTT assay; assay type: functional, cell-based; conditions: HepG2, 72 h
Huh-7 = experiment: Antiproliferative activity against human Huh-7 cells assessed as inhibition of cell growth incubated for 72 hrs by MTT assay; assay type: functional, cell-based; conditions: Huh-7, 72 h

SMILES: CCCCCCCCc1c2[n+](cc3c(NCCO)c(OC)ccc13)CCc1cc3c(cc1-2)OCO3
IC50 (HepG2 [2]): 2.76 µM

SMILES: COc1ccc2cc3[n+](cc2c1OC)CCc1cc2c(cc1-3)OCO2 [BERBERINE]
inhibition in vivo at 20 mg/kg (H22): 42.3%
IC50 [4]: > 50 µM
IC50 (SK-HEP1): > 50 µM
IC50 (Hep 3B2): > 50 µM
IC50 (HepG2 [5]): > 50 µM
IC50 (HepG2 [2]): > 50 µM
ΔTm (DNA): 2.1 °C
ΔTm (Quadruplex DNA [3]): 1.6 °C
IC50 (Huh-7): > 50 µM

SMILES: CCCCCCCCc1c2[n+](c3c4c(c(OC)ccc14)N(CCO)C=C3)CCc1cc3c(cc1-2)OCO3
IC50 (HepG2 [2]): 2.28 µM

SMILES: CCCCCCCCc1c2[n+](cc3c(NCCN)c(OC)ccc13)CCc1cc3c(cc1-2)OCO3
IC50 (HepG2 [2]): 8.61 µM

SMILES: CCCCCCCCCCCCc1c2[n+](cc3c(NCCO)c(OC)ccc13)CCc1cc3c(cc1-2)OCO3
IC50 (HepG2 [2]): 2.31 µM

Continued, values first:

ΔTm (Quadruplex DNA [1]): 19.3 °C
IC50 (HepG2 [2]): 1.37 µM
ΔTm (DNA): 1.8 °C
ΔTm (Quadruplex DNA [3]): 23.1 °C
SMILES: CCCCCCCCc1c2[n+](cc3c(NCCCN4CCCC4)c(OC)ccc13)CCc1cc3c(cc1-2)OCO3

IC50 (HepG2 [2]): 4.52 µM
SMILES: CCCCCCc1c2[n+](cc3c(NCCO)c(OC)ccc13)CCc1cc3c(cc1-2)OCO3

IC50 (HepG2 [2]): 2.42 µM
SMILES: CCCCCCc1c2[n+](cc3c(NCCN(C)C)c(OC)ccc13)CCc1cc3c(cc1-2)OCO3
